Among the data in ChEMBL document CHEMBL3352252, “Design, synthesis and molecular modeling of biquinoline-pyridine hybrids as a new class of potential EGFR and HER-2 kinase inhibitors” (Bioorg Med Chem Lett, 2014) are IC50 values, retold here.

Each structure is given as a SMILES string.

One may read the IC50 as the concentration that gives 50% inhibition.

For assay [1], the system named is HepG2. As to the kind of experiment: Antiproliferative activity against human HepG2 cells after 48 hrs by MTT assay. Particulars: HepG2, 48 h. The assay is classed as functional, cell-based. Background: Formazan colour is commonly taken as a measure of viable cells.
The target in assay [2] is Receptor tyrosine-protein kinase erbB-2 (Homo sapiens, UniProt P04626). As to the kind of experiment: Inhibition of histidine-tagged recombinant HER2 (unknown origin) expressed in Sf9 cells assessed as reduction in enzyme autophosphorylation by DELFIA/time-resolved fluorometry.
Assay [3] has as its target Epidermal growth factor receptor (Homo sapiens, UniProt P00533). Description: Inhibition of histidine-tagged recombinant EGFR cytoplasmic domain (amino acids 645-1186) (unknown origin) expressed in Sf9 cells assessed as reduction in enzyme autophosphorylation by DELFIA/time-resolved fluorometry.
For assay [4], the system named is A549. As to the kind of experiment: Antiproliferative activity against human A549 cells after 48 hrs by MTT assay. The format is functional, cell-based. The settings on record: A549, 48 h.

Chain of Receptor tyrosine-protein kinase erbB-2 (P04626 whole entry, the tested form may be a part): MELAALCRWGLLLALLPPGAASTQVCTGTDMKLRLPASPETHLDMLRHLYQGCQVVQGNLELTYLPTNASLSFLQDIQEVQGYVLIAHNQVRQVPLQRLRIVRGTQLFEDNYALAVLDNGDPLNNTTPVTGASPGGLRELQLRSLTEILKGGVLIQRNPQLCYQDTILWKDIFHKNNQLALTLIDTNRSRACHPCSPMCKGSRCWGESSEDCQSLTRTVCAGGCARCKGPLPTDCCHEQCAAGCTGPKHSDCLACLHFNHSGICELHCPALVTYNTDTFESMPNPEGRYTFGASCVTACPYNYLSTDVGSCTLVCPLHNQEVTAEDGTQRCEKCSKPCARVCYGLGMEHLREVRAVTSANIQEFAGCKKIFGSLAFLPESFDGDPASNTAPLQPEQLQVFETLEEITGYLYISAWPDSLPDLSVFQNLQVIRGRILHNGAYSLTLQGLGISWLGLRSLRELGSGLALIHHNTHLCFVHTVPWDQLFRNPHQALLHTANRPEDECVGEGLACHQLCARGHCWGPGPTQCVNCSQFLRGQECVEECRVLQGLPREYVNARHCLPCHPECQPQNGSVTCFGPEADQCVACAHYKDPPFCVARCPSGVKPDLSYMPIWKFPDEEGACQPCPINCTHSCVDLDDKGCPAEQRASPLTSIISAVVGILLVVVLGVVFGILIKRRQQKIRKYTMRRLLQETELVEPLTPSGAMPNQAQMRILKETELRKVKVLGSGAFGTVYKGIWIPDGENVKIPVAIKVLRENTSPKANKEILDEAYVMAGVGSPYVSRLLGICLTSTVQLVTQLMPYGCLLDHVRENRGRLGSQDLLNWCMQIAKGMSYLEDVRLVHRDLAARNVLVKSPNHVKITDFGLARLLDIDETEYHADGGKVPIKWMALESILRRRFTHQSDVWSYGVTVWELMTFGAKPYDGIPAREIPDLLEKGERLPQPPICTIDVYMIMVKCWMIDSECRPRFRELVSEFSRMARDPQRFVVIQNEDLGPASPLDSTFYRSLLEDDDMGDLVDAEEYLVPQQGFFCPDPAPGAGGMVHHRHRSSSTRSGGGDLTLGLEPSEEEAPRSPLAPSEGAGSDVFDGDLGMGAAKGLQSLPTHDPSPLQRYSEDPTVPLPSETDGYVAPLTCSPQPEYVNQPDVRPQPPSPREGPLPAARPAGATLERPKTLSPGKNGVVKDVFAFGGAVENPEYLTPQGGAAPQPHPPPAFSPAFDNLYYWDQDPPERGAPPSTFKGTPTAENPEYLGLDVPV
Chain of Epidermal growth factor receptor (P00533 whole entry, the tested form may be a part): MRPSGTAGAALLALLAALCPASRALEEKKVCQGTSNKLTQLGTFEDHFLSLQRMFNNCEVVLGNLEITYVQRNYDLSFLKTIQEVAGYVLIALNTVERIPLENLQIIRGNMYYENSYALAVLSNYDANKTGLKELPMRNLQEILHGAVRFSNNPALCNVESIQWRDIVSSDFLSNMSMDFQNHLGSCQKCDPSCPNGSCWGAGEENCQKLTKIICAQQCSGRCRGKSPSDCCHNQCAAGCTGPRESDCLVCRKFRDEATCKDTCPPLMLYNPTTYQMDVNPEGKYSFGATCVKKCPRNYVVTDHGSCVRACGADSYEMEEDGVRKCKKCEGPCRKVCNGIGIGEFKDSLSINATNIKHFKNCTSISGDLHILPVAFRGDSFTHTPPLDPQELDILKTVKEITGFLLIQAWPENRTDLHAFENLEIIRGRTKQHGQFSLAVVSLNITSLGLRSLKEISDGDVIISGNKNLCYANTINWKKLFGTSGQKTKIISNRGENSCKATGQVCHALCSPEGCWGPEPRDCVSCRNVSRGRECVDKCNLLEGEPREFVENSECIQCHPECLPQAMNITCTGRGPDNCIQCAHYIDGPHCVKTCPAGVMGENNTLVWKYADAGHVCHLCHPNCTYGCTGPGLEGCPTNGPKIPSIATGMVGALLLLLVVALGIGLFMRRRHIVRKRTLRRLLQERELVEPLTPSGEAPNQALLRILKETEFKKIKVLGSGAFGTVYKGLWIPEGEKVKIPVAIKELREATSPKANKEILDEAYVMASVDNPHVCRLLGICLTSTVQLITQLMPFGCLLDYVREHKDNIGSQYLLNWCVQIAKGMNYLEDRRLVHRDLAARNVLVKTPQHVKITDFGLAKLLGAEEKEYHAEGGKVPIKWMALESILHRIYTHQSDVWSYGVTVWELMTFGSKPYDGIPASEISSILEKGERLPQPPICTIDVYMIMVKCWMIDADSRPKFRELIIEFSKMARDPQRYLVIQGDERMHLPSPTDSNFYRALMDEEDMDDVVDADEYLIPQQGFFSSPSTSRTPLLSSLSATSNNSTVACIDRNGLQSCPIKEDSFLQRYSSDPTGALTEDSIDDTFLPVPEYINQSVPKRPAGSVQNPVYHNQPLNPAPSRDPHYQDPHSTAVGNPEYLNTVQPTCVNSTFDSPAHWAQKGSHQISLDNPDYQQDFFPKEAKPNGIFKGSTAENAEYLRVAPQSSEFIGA

`Cc1ccc2c(c1)cc(C1C(C#N)=C(N)N(c3cccnc3)C3=C1C(=O)CCC3)c1nnnn12` (stereo not drawn): the IC50 in assay [1] amounted to 16.1 µM; in assay [2], 14.8 µM; in assay [3] it was 10.4 µM; in assay [4], 18.1 µM.

For the compound `COc1ccc2c(c1)cc(C1C(C#N)=C(N)N(c3cccnc3)C3=C1C(=O)CCC3)c1nnnn12` (stereo not drawn), the IC50 in assay [1] is 21.2 µM; in assay [2], 8.9 µM; in assay [3], 5.4 µM; in assay [4], 23.1 µM.

With `N#CC1=C(N)N(c2cccnc2)C2=C(C(=O)CCC2)C1c1cc2cc(Cl)ccc2n2nnnc12` (stereo not drawn), the IC50 in assay [1] is 5.9 µM; in assay [4], 7.8 µM.

As to `COC(=O)C1=C(N)N(c2cccnc2)C2=C(C(=O)CCC2)C1c1cc2ccccc2n2nnnc12` (stereo not drawn), the IC50 in assay [1] is 1.5 µM; in assay [2] it was 1.9 µM; in assay [3], 1.1 µM; in assay [4], 1.1 µM.

For the compound `COC(=O)C1=C(N)N(c2cccnc2)C2=C(C(=O)CCC2)C1c1cc2cc(C)ccc2n2nnnc12` (stereo not drawn), the IC50 in assay [1] is 1.9 µM; in assay [2] it was 5.2 µM; in assay [3], 4.3 µM; in assay [4], 5.4 µM.

With `COC(=O)C1=C(N)N(c2cccnc2)C2=C(C(=O)CCC2)C1c1cc2cc(OC)ccc2n2nnnc12` (stereo not drawn), the half-maximal inhibitory concentration (IC50) turned out to be 6 µM in assay [1], 2.1 µM in assay [2], 1.3 µM in assay [3] and 6.4 µM in assay [4].

For `COC(=O)C1=C(N)N(c2cccnc2)C2=C(C(=O)CCC2)C1c1cc2cc(Cl)ccc2n2nnnc12` (stereo not drawn), the IC50 in assay [1] came to 1.3 µM; in assay [2], 9 µM; in assay [3] it was 8.1 µM; in assay [4], 0.1 µM.

As to `CCOC(=O)C1=C(N)N(c2cccnc2)C2=C(C(=O)CCC2)C1c1cc2ccccc2n2nnnc12` (stereo not drawn), the IC50 in assay [1] turned out to be 0.1 µM; in assay [2], 0.2 µM; in assay [3] it was 0.09 µM; in assay [4], 0.4 µM.

As to `CCOC(=O)C1=C(N)N(c2cccnc2)C2=C(C(=O)CCC2)C1c1cc2cc(C)ccc2n2nnnc12` (stereo not drawn), the IC50 in assay [1] came to 7.1 µM; in assay [2] it was 4.1 µM; in assay [3], 7 µM; in assay [4] it was 8.5 µM.

Take `CCOC(=O)C1=C(N)N(c2cccnc2)C2=C(C(=O)CCC2)C1c1cc2cc(OC)ccc2n2nnnc12` (stereo not drawn): the IC50 in assay [1] is 18.3 µM; in assay [2], 0.8 µM; in assay [3] it was 0.2 µM; in assay [4] it was 15.4 µM.

With `CCOC(=O)C1=C(N)N(c2cccnc2)C2=C(C(=O)CCC2)C1c1cc2cc(Cl)ccc2n2nnnc12` (stereo not drawn), the IC50 in assay [1] turned out to be 5.5 µM; in assay [2], 22.7 µM; in assay [3] it was 16.7 µM; in assay [4], 1.3 µM.

Consider `N#CC1=C(N)N(c2cccnc2)C2=C(C(=O)CCC2)C1c1cc2ccccc2n2nnnc12` (stereo not drawn), for which the IC50 worked out at 11 µM in assay [1], 5.2 µM in assay [2], 4.8 µM in assay [3] and 13 µM in assay [4].

`C#Cc1cccc(Nc2ncnc3cc(OCCOC)c(OCCOC)cc23)c1` [ERLOTINIB]: the IC50 in assay [1] and in assay [4] was 0.1 µM throughout.
